# Measurements from paper PMC12396409, “Screening and hit evaluation of a microbial metabolite library against the pathogenic Plasmodium falciparum and Toxoplasma gondii parasites” (International Journal for Parasitology: Drugs and Drug …, 2025).
# Read-outs that look alike come from different tables or passages of the source.
# Tests used:
# [1] = test system: P. falciparum 3D7 parasites; assay: P. falciparum growth inhibition assay, 1-cycle (72 h treatment), SYBR DNA staining (library screen at 2 μg/mL and dose-response); format: cell-based, Plasmodium falciparum; details: for activity at 2 µg/mL: Plasmodium falciparum
# [2] = test system: P. falciparum 3D7 parasites; assay: P. falciparum growth inhibition assay, 2-cycle (120 h treatment), delayed-death screen and dose-response; format: cell-based, Plasmodium falciparum; details: for activity at 2 µg/mL: Plasmodium falciparum, 3D7, 120 h
# [3] = test system: T. gondii RH strain (RH-Tub-eYFP) tachyzoites; assay: microbe, parasite or virus in culture; format: cell-based, Toxoplasma gondii; details: 72 h; for percent parasite growth at 2 µg/mL: Toxoplasma gondii
# [4] = P. falciparum, 72 h, parasite screen 2 μg/mL, % growth, replicate 2
# [5] = P. falciparum, 120 h, parasite screen 2 μg/mL, % growth, replicate 2
# [6] = T. gondii, parasite screen 2 μg/mL, % growth, replicate 2
# [7] = library screen at 2 μg/mL, 72 h, % growth, replicate 1
# [8] = library screen at 2 μg/mL, 72 h, % growth, replicate 2
# [9] = library screen at 2 μg/mL, 120 h, % growth, replicate 1
# [10] = library screen at 2 μg/mL, 120 h, % growth, replicate 2
# [11] = library screen at 2 μg/mL, % growth, replicate 1
# [12] = library screen at 2 μg/mL, % growth, replicate 2
# [13] = P. falciparum, 72 h, parasite screen 2 μg/mL, % growth, replicate 1
# [14] = P. falciparum, 120 h, parasite screen 2 μg/mL, % growth, replicate 1
# [15] = T. gondii, parasite screen 2 μg/mL, % growth, replicate 1
# [16] = 3D7, 72 h, P. falciparum, 72 h, screen at 2 μg/mL, replicate 1, read-out: Pf_72h_%Growth_Rep1
# [17] = 3D7, 72 h, P. falciparum, 72 h, screen at 2 μg/mL, replicate 2, read-out: Pf_72h_%Growth_Rep2
# [18] = P. falciparum, 120 h, screen at 2 μg/mL, replicate 1, read-out: Pf_120h_%Growth_Rep1
# [19] = P. falciparum, 120 h, screen at 2 μg/mL, replicate 2, read-out: Pf_120h_%Growth_Rep2
# [20] = T. gondii, screen at 2 μg/mL, replicate 1, read-out: Tg_72h_%Growth_Rep1
# [21] = T. gondii, screen at 2 μg/mL, replicate 2, read-out: Tg_72h_%Growth_Rep2
compound,measurement,setting,value
CC[C@@H](C(=O)[C@@H](C)[C@@H](O)[C@H](C)[C@@H]1O[C@@H]([C@@H](CC)C(=O)O)CC[C@@H]1C)[C@H]1O[C@]2(C=C[C@@H](O)[C@]3(CC[C@@](C)([C@H]4CC[C@](O)(CC)[C@H](C)O4)O3)O2)[C@H](C)C[C@@H]1C [Salinomycin],Pf_72h_%Growth_Rep2,[1]; [4],-1.92%
same,activity at 2 µg/mL,"[1]; 3D7, 72 h, P. falciparum, 72 h, parasite screen 2 μg/mL, % growth, replicate 1, read-out: Pf_72h_%Growth_Rep1",3.76%
same,Pf_120h_%Growth_Rep2,[2]; [5],1.02%
same,activity at 2 µg/mL,"[2]; P. falciparum, 120 h, parasite screen 2 μg/mL, % growth, replicate 1, read-out: Pf_120h_%Growth_Rep1",13.6%
same,Tg_72h_%Growth_Rep2,[3]; [6],0.21%
same,percent parasite growth at 2 µg/mL,"[3]; T. gondii, parasite screen 2 μg/mL, % growth, replicate 1, read-out: Tg_72h_%Growth_Rep1",2.46%
"CC(=O)O[C@@H]1[C@@H]2O[C@H]2[C@@](C)(O)C(=O)[C@@H](C)C/C=C\[C@H]2[C@H](O)C(C)=C(C)[C@H]3[C@H](Cc4ccccc4)NC(=O)[C@@]123 [Epoxycytochalasin C, 19,20-]",Pf_72h_%Growth_Rep1,[1]; [7],3.41%
same,Pf_72h_%Growth_Rep2,[1]; [8],4.96%
same,Pf_120h_%Growth_Rep1,[2]; [9],4.88%
same,Pf_120h_%Growth_Rep2,[2]; [10],15.35%
same,Tg_72h_%Growth_Rep1,[3]; [11],1.38%
same,Tg_72h_%Growth_Rep2,[3]; [12],1.44%
Pyripyropene A,Pf_72h_%Growth_Rep1,[1]; [13],79.94%
same,Pf_72h_%Growth_Rep2,[1]; [4],110.00%
same,Pf_120h_%Growth_Rep1,[2]; [14],67.48%
same,Pf_120h_%Growth_Rep2,[2]; [5],119.28%
same,Tg_72h_%Growth_Rep1,[3]; [15],125.43%
same,Tg_72h_%Growth_Rep2,[3]; [6],86.00%
COC1=CC(=O)c2c(n(C)c3occc3c2=O)C1=O [BIA-M1955],Pf_72h_%Growth_Rep1,"[1]; P. falciparum 3D7, 72 h, parasite screen at 2 μg/mL, % growth, replicate 1",39.08%
same,Pf_72h_%Growth_Rep2,"[1]; P. falciparum 3D7, 72 h, parasite screen at 2 μg/mL, % growth, replicate 2",29.78%
same,Pf_120h_%Growth_Rep1,"[2]; P. falciparum 3D7, 120 h, parasite screen at 2 μg/mL, % growth, replicate 1",53.96%
same,Pf_120h_%Growth_Rep2,"[2]; P. falciparum 3D7, 120 h, parasite screen at 2 μg/mL, % growth, replicate 2",26.88%
same,Tg_72h_%Growth_Rep1,"[3]; T. gondii, parasite screen at 2 μg/mL, % growth, replicate 1",248.99%
same,Tg_72h_%Growth_Rep2,"[3]; T. gondii, parasite screen at 2 μg/mL, % growth, replicate 2",112.97%
CC[C@H]1CCC[C@H](O)[C@@H](C)C(=O)C2=C[C@H]3[C@@H]4C[C@H](O)C[C@H]4CC[C@H]3[C@@H]2CC(=O)O1 [Dihydrospinosyn A aglycone],IC50,"[1]; 3D7, 72 h treatment, mean ± S.D., n ≥ 3, read-out: IC50 (μM), P. falciparum",> 1 µM
same,Screen (P. falciparum),"[1]; library screen at 2 μg/mL, 3D7, 72 h, DD from the 120 h timepoint",I
same,Pf_72h_%Growth_Rep1,[1]; [7],96.92%
same,Pf_72h_%Growth_Rep2,[1]; [8],105.46%
same,Pf_120h_%Growth_Rep1,[2]; [9],88.50%
same,Pf_120h_%Growth_Rep2,[2]; [10],102.89%
same,Tg_72h_%Growth_Rep1,[3]; [11],141.87%
same,Tg_72h_%Growth_Rep2,[3]; [12],82.63%
CCCCC[C@@H]1CCCCC[C@@H](O)C[C@H](O)[C@H](O)/C=C/C(=O)O1 [Sch 725674],Pf_72h_%Growth_Rep1,[1]; [13],94.68%
same,Pf_72h_%Growth_Rep2,[1]; [4],136.05%
same,Pf_120h_%Growth_Rep1,[2]; [14],118.17%
same,Pf_120h_%Growth_Rep2,[2]; [5],96.28%
same,Tg_72h_%Growth_Rep1,[3]; [15],110.92%
same,Tg_72h_%Growth_Rep2,[3]; [6],69.04%
C[C@H]1C/C=C/[C@H]2[C@@H]3O[C@]3(C)[C@@H](C)[C@H]3[C@H](Cc4ccccc4)NC(=O)[C@]32OC(=O)O/C=C/[C@@](C)(O)C1=O [Cytochalasin E],activity at 2 µg/mL,[1]; [16],64%
same,activity at 2 µg/mL,[1]; [17],54.5%
same,activity at 2 µg/mL,[2]; [18],53.6%
same,activity at 2 µg/mL,[2]; [19],53.8%
same,percent parasite growth at 2 µg/mL,[3]; [20],89.3%
same,percent parasite growth at 2 µg/mL,[3]; [21],102%
CC[C@H]1OC(=O)[C@H](C)[C@@H](O[C@H]2C[C@@](C)(O)[C@@H](O)[C@H](C)O2)[C@H](C)[C@@H](O[C@@H]2O[C@H](C)C[C@H](N(C)C)[C@H]2O)[C@](C)(O)C[C@@H](C)C(=O)[C@H](C)[C@@H](O)[C@]1(C)O [Erythromycin C],Pf_72h_%Growth_Rep1,[1]; [7],81.84%
same,Pf_72h_%Growth_Rep2,[1]; [8],74.13%
same,Pf_120h_%Growth_Rep1,[2]; [9],93.33%
same,Pf_120h_%Growth_Rep2,[2]; [10],77.67%
same,Tg_72h_%Growth_Rep1,[3]; [11],45.84%
same,Tg_72h_%Growth_Rep2,[3]; [12],43.52%
N#Cc1cn([C@@H]2O[C@H](CO)[C@@H](O)[C@H]2O)c2ncnc(N)c12 [Toyocamycin],activity at 2 µg/mL,[1]; [16],2.78%
same,activity at 2 µg/mL,[1]; [17],4.02%
same,activity at 2 µg/mL,[2]; [18],25.6%
same,activity at 2 µg/mL,[2]; [19],6.44%
same,percent parasite growth at 2 µg/mL,[3]; [20],0.78%
same,percent parasite growth at 2 µg/mL,[3]; [21],1.19%
